Measured values published in patent US9629822B2, “Flavonoid based antiviral targets” (UNIVERSITY OF CENTRAL FLORIDA RESEARCH FOUNDATION, INC., priority 2012, dated 2017).
Read-outs that look alike come from different tables or passages of the source.

What was measured:
[1] = TZMbI assay for cell safety (cell viability and growth, CytoTox Glo); settings: human, TZMbI cells, read-out: % decrease in viability compared to 0.1% DMSO vehicle based on viable cell luminescence
Description: Assays were performed below in accordance with the procedures set forth in The Journal of Immunology, 2006, 176, pp. 6900-905; AIDS Research and Human Retroviruses, 2004, 20:11, pp. 1157-1665.^32,33 TZMbI assays for cell safety were performed to identify potential anti-viral compounds. TZMbI assays for cell safety were performed to identify potential anti-viral compounds per the methods.

[2] = system: CHO cells; assay: CHO cell toxicity, MTS assay, 48 h; format: cell-based, Chinese hamster; settings: Cricetulus griseus, CHO
Method in brief: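 CHO cells plated at 10,000 cells/mL, incubated overnight, then exposed to drug (final DMSO <1%) for 48 h at 37 °C, 5% CO2, in triplicate. MTS added for a further 4 h; absorbance read at 490 nm. IC50 taken from relative A490 versus drug concentration.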

[3] = system: HIV-1 BaL; assay: Anti-HIV assay (luciferase, HIV-1 BaL infection); format: cell-based
Method in brief: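 Cells infected with HIV-1 BaL at 2 ng/mL p24 (MOI approx 0.02) in compound presence. Infection read out by luciferase.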

[4] = biological target: T1, US28 receptor (Human cytomegalovirus, UniProt P69332); assay: PathDetect trans Elk1 luciferase reporter gene assay in US28-transfected 293T HEK cells; format: cell-based, Human Cytomegalovirus (HCMV); settings: for type of activity on the US28 receptor (agonist / inverse agonist / none), in words: Elk1 reporter, US28-transfected HEK cells
T1 construct: expressed in transfected cells; host or cells: HEK 293T cells, transiently transfected
Method in brief: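 HEK293T cells transiently transfected with Elk1, Luc and US28 vector (empty pcDNA3 for mock) were dosed with compounds in DMEM/1% FBS with 1% DMSO for 20-24 h at 37° C. Bright-Glo luminescence decrease was read; EC50 is halfway between maximal response and no-compound control, by non-linear regression.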

[5] = 37° C., MTS reagent, read-out: CHO 48 h IC50 value
[6] = 10 μM, Experiment 1B, 2 ng/mL p24 HIV-1 BaL
[7] = Human immunodeficiency virus 1, BAL, 1.25 μM, Experiment 2B
[8] = Human immunodeficiency virus 1, BAL, 2.5 μM, Experiment 2B
[9] = Human immunodeficiency virus 1, BAL, 5 μM, Experiment 2B
[10] = Human immunodeficiency virus 1, BAL, 10 μM, Experiment 1B, 2 ng/mL p24 HIV-1 BaL
[11] = Human immunodeficiency virus 1, BAL, 10 μM, Experiment 2B
[12] = Human immunodeficiency virus 1, BAL, 20 μM, Experiment 2B
[13] = EC50 (μM), 293T HEK cells transiently expressing US28, Elk1 reporter, NE = no effect when tested at 10 μM of compound
[14] = Human immunodeficiency virus 1, BAL, 40 μM, Experiment 2B
[15] = Human immunodeficiency virus 1, BAL, 80 μM, Experiment 2B
[16] = 293T HEK cells transiently expressing US28, Elk1 reporter, NE = no effect when tested at 10 μM of compound

T1 sequence (P69332 whole entry): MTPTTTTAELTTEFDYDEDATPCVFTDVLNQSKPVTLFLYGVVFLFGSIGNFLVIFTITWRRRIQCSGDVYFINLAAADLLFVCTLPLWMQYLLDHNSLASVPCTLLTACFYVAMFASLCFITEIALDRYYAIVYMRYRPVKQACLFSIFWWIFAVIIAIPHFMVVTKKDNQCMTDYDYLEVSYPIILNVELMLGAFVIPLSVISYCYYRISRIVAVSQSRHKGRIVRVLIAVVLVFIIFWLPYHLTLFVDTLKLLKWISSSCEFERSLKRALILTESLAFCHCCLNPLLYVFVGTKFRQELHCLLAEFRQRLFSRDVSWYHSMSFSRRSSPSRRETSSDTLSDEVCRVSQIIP

Structure (SMILES) | cytotoxicity at 1.25 μM ([1]; Experiment 2A) [%] | cytotoxicity at 2.5 μM ([1]; Experiment 2A) [%] | cytotoxicity at 5 μM ([1]; Experiment 2A) [%] | cytotoxicity at 10 μM ([1]; Experiment 1A) [%] | cytotoxicity at 10 μM ([1]; Experiment 2A) [%] | cytotoxicity at 20 μM ([1]; Experiment 2A) [%] | IC50 [2, 5] [µM] | RLU (relative luciferase units) ([3]; 1.25 μM, Experiment 2B) [RLU] | RLU (relative luciferase units) ([3]; 2.5 μM, Experiment 2B) [RLU] | RLU (relative luciferase units) ([3]; 5 μM, Experiment 2B) [RLU] | RLU (relative luciferase units) [3, 6] [RLU] | RLU (relative luciferase units) ([3]; 10 μM, Experiment 2B) [RLU] | RLU (relative luciferase units) ([3]; 20 μM, Experiment 2B) [RLU] | inhibition at 1.25 µM [3, 7] [%] | inhibition at 2.5 µM [3, 8] [%] | inhibition at 5 µM [3, 9] [%] | inhibition at 10 µM [3, 10] [%] | inhibition at 10 µM [3, 11] [%] | inhibition at 20 µM [3, 12] [%] | EC50 [4, 13] [µM] | also measured
COc1ccc(Br)cc1/C=C/C(=O)c1ccc2ccccc2c1O [Compound 8m, (E)-3-(5-bromo-2-methoxyphenyl)-1-(1-hydroxynaphthalen-2-yl)prop-2-en-1-one] | 10.3 | 17.9 | 10.7 | 20.3 | 38.2 | 90 | 15.6 ± 1 | 324.10 | 283.48 | 251.02 | 437.6 | 170.42 | 160.21 | -24.3 | -9.08 | 9.04 | 53.3 | 37.7 | 49.9 |  | EC50 ([4]; pEC50 ± SEM, 293T HEK cells transiently expressing US28, Elk1 reporter): 2.88 µM
COc1ccc(Cl)cc1-c1oc2ccccc2c(=O)c1O [Compound 9h, 2-(5-chloro-2-methoxyphenyl)-3-hydroxy-4H-chromen-4-one] | -8.02 | -10.4 | -13.9 | 23.6 | 1.57 | 7.83 | 25 ± 2.2 | 1.61 | 16.44 | 18.32 | 367.6 | 49.04 | 20.14 | -8.02 | -10.4 | -13.9 | 60.7 | 1.57 | 7.83 | 1.32 | type of activity on the US28 receptor (agonist / inverse agonist / none), in words [4]: inverse agonist
COc1ccccc1-c1oc2ccccc2c(=O)c1O [Compound 9a, 3-Hydroxy-2-(2-methoxyphenyl)-4H-chromen-4-one] |  |  | -3.31 |  | -24.9 | -21.6 | > 100 |  |  | 16.52 |  | 16.51 | 36.83 |  |  | -3.31 |  | -24.9 | -21.9 | 4.6 | cytotoxicity at 40 μM ([1]; Experiment 2A): -25.4%; cytotoxicity at 80 μM ([1]; Experiment 2A): -7.86%; RLU (relative luciferase units) ([3]; 40 μM, Experiment 2B): 65.50 RLU; RLU (relative luciferase units) ([3]; 80 μM, Experiment 2B): 59.24 RLU; inhibition at 40 µM [3, 14]: -25.4%; inhibition at 80 µM [3, 15]: -7.86%; type of activity on the US28 receptor (agonist / inverse agonist / none), in words [4]: inhibited US28 receptor constitutive activity; Efficacy(%) ([4]; maximum intrinsic activity from dose-response curve, negative = inverse agonism): −19%; Emax ([4]; read-out: Efficacy(%), maximum intrinsic activity from dose-response curve, negative = inverse agonism): -19%
COc1ccc(Br)cc1-c1cc(=O)c2c(O)cccc2o1 [Compound 12b, 2-(5-Bromo-2-methoxyphenyl)-5-hydroxy-4H-chromen-4-one] | -8.84 | -2.4 | -3.2 | 34.9 | 10.4 | 49.1 | 75.2 ± 8.7 | −7.32 | 0.82 | −1.73 | 445.1 | 27.57 | 36.35 | -8.84 | -2.4 | -3.2 | 52.4 | 10.4 | 49.1 | > 10 | EC50 [4, 16]: > 10 µM
COc1ccc(Br)cc1/C=C/C(=O)c1c(O)cccc1OCc1ccccc1 [Compound 8l, (E)-1-(2-(Benzyloxy)-6-hydroxyphenyl)-3-(5-bromo-2-methoxyphenyl)prop-2-en-1-one] | -2.83 | -0.43 | 2.2 | 29.8 | 28.7 | 55.2 | 8.1 ± 1 | 262.26 | 215.14 | 125.95 | 57.3 | 23.18 | 16.87 | -0.55 | 17.2 | 54.4 | 93.9 | 91.5 | 94.7 |  | IC50 ([3]; Human immunodeficiency virus 1, BAL, inferred from 54.36% inhibition at 5 μM): < 5 µM; EC50 (μM) [4, 16]: Toxic
COc1ccc(Br)cc1-c1oc2ccccc2c(=O)c1O [Compound 9b, 2-(5-Bromo-2-methoxyphenyl)-3-hydroxy-4H-chromen-4-one] |  |  | -7.08 | -2.1 | -19 | -25.9 | 88.5 ± 10.1 |  |  | 12.99 | 736.7 | 23.85 | 32.82 |  |  | -7.08 | 21.3 | -19 | -25.9 | > 10 | cytotoxicity at 40 μM ([1]; Experiment 2A): -29.8%; cytotoxicity at 80 μM ([1]; Experiment 2A): 13.3%; RLU (relative luciferase units) ([3]; 40 μM, Experiment 2B): 47.61 RLU; RLU (relative luciferase units) ([3]; 80 μM, Experiment 2B): 73.47 RLU; inhibition at 40 µM [3, 14]: -29.8%; inhibition at 80 µM [3, 15]: 13.3%; EC50 [4, 16]: > 10 µM; type of activity on the US28 receptor (agonist / inverse agonist / none), in words [4]: did not show any activity
COc1ccccc1-c1cc(=O)c2c(O)cccc2o1 [Compound 12a, 5-Hydroxy-2-(2-methoxyphenyl)-4H-chromen-4-one] | 6.38 | 41.7 | 123 | 44.5 | 43 | 131 |  | −3.22 | 28.09 | 56.78 | 152.1 | 83.62 | 88.46 | 6.38 | 41.7 | 123 | 83.7 | 43 | 131 | > 10 | IC50 ([2]; read-out: CHO 48 h IC50 value (μM)): > 100 µM; EC50 [4, 16]: > 10 µM
